Results on 20 compounds are retold here after US20260365682A1, “MODULATORS OF TNF-ALPHA ACTIVITY” (Forward Therapeutics, Inc., priority 2022, published 2026).

Read-outs that look alike come from different tables or passages of the source.

The test concerns the target T1, TNF-α (Homo sapiens, UniProt P01375).
T1 construct: purchased R&D 210-TA-020/CF
In words: TNF-α Induced HEK Blue Cellular Assay (secreted alkaline phosphatase expression, QUANTI-Blue). The settings on record: HEK Blue TNFα reporter cells, TNF-α 100 μg/ml, 24 hrs at 37° C., inhibition of secreted alkaline phosphatase. The class given is cell-based. As for the experimental part:
TNF-α Induced HEK Blue Cellular Assay
Test articles were diluted in DMSO and serially diluted into 384 well assay plate (Corning 3765), at final concentrations ranging from […] to 0.5 nM. HEK Blue™ TNFα reporter cells were added at a final density of 10,000 cell per well in assay media [DMEM (Gibco, cat #21063-029), 10% fetal bovine serum (ExcelBio, cat #FND500), 1% Penicillin-Streptomycin (Solarbio, cat #P1400-100]. TNF-α (R&D 210-TA-020/CF) was then added to the assay plate at a final concentration of […]. This plate was then incubated for 24 hrs at 37° C. and 5% CO2. Secreted alkaline phosphatase expression was then measured using QUANTI-Blue™ (Invivogen), according to manufacturer instructions and read on an Envision microplate reader at 620 nm.
Inhibition data for test compound over a range of concentration was plotted as percentage inhibition of the test compound (100%=maximum inhibition). IC50 values were determined after correcting for background [(sample read-mean of low control)/(mean of high control-mean of low control)] whereby the low control is DMSO without stimulation and high control is DMSO with stimulation. The IC50 is defined as the concentration of test compound which produces 50% inhibition and was quantified using the 4 parameter logistic equation to fit the data.

T1 sequence (P01375 77-233 limits assumed): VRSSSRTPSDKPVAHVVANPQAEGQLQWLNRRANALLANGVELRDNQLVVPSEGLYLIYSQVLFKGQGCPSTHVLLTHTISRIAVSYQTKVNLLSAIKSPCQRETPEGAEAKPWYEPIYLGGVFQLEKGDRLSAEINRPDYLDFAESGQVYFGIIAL

As for `[2H]C([2H])([2H])N1C(=O)c2cccc(OC(F)F)c2[C@H]2C[C@@H]1c1nc3ccc(C#CCCN(C)C)cc3n12` [Example 163, (7R,14R)-1-(difluoromethoxy)-11-(4-(dimethylamino)but-1-yn-1-yl)-6-(methyl-d3)-6,7-dihydro-7,14-methanobenzo[f]benzo[4,5]imidazo[1,2-a][1,4]diazocin-5(14H)-one], the IC50 (read-out: IC50 value) fell in the range of 100 to 1000 nM.

As for `[2H]C([2H])([2H])N1C(=O)c2cccc(OC(F)F)c2[C@H]2C[C@@H]1c1nc3ccc(C#Cc4cnccn4)cc3n12` [Example 22, (7R,14R)-1-(difluoromethoxy)-6-(methyl-d3)-11-(pyrazin-2-ylethynyl)-6,7-dihydro-7,14-methanobenzo[f]benzo[4,5]imidazo[1,2-a][1,4]diazocin-5(14H)-one], the IC50 (read-out: IC50 value) was under 100 nM.

`[2H]C([2H])([2H])N1C(=O)c2cccc(OC(F)F)c2[C@H]2C[C@@H]1c1nc3ccc(C#CCCN4CCC(F)(F)C4)cc3n12` [Example 226, (7R,14R)-1-(difluoromethoxy)-11-(4-(3,3-difluoropyrrolidin-1-yl)but-1-yn-1-yl)-6-(methyl-d3)-6,7-dihydro-7,14-methanobenzo[f]benzo[4,5]imidazo[1,2-a][1,4]diazocin-5(14H)-one]: the IC50 (read-out: IC50 value) was under 100 nM.

Consider `[2H]C([2H])([2H])N1C(=O)c2cccc(OC(F)F)c2[C@H]2C[C@@H]1c1nc3ccc(C#CC4CCN(C(=O)C5(O)CC5)C4)cc3n12` (stereo partly drawn) [Example 203, (7R,14R)-1-(difluoromethoxy)-11-((1-(1-hydroxycyclopropane-1-carbonyl)pyrrolidin-3-yl)ethynyl)-6-(methyl-d3)-6,7-dihydro-7,14-methanobenzo[f]benzo[4,5]imidazo[1,2-a][1,4]diazocin-5(14H)-one], for which the 50% inhibitory concentration (IC50) (read-out: IC50 value) is under 100 nM.

For `[2H]C([2H])([2H])N1C(=O)c2cccc(OC(F)F)c2[C@H]2C[C@@H]1c1nc3ccc(C#CCCN4CC[C@H](F)C4)cc3n12` [Example 220, (7R,14R)-1-(difluoromethoxy)-11-(4-((S)-3-fluoropyrrolidin-1-yl)but-1-yn-1-yl)-6-(methyl-d3)-6,7-dihydro-7,14-methanobenzo[f]benzo[4,5]imidazo[1,2-a][1,4]diazocin-5(14H)-one], the IC50 (read-out: IC50 value) is under 100 nM.

Turning to `[2H]C([2H])([2H])N1C(=O)c2cccc(OC(F)F)c2[C@H]2C[C@@H]1c1nc3ccc(C#CC4(C)CN(CC(F)(F)F)C4)cc3n12` [Example 178, (7R,14R)-1-(difluoromethoxy)-6-(methyl-d3)-11-((3-methyl-1-(2,2,2-trifluoroethyl)azetidin-3-yl)ethynyl)-6,7-dihydro-7,14-methanobenzo[f]benzo[4,5]imidazo[1,2-a][1,4]diazocin-5(14H)-one], the IC50 (read-out: IC50 value) lay within 100 to 1000 nM.

Where the note is “IC50 value”, `[2H]C([2H])([2H])N1C(=O)c2cccc(OC(F)F)c2[C@H]2C[C@@H]1c1nc3ccc(C#CCNC4CC4)cc3n12` [Example 241, (7R,14R)-11-(3-(cyclopropylamino)prop-1-yn-1-yl)-1-(difluoromethoxy)-6-(methyl-d3)-6,7-dihydro-7,14-methanobenzo[f]benzo[4,5]imidazo[1,2-a][1,4]diazocin-5(14H)-one] displayed an IC50 of under 100 nM.

Regarding `[2H]C([2H])([2H])N1C(=O)c2cccc(OC(F)F)c2[C@H]2C[C@@H]1c1nc3ccc(C#CCCCCO)cc3n12` [Example 92, (7R,14R)-1-(difluoromethoxy)-11-(6-hydroxyhex-1-yn-1-yl)-6-(methyl-d3)-6,7-dihydro-7,14-methanobenzo[f]benzo[4,5]imidazo[1,2-a][1,4]diazocin-5(14H)-one], the IC50 (read-out: IC50 value) was under 100 nM.

With `[2H]C([2H])([2H])N1C(=O)c2cccc(OC(F)F)c2[C@H]2C[C@@H]1c1nc3ccc(C#CC4CN(C5COC5)C4C)cc3n12` (single isomer, unassigned) [Example 258, (7R,14R)-1-(difluoromethoxy)-6-(methyl-d3)-11-(((2R or 2S)-2-methyl-1-(oxetan-3-yl)azetidin-3-yl)ethynyl)-6,7-dihydro-7,14-methanobenzo[f]benzo[4,5]imidazo[1,2-a][1,4]diazocin-5(14H)-one], the 50% inhibitory concentration (IC50) (read-out: IC50 value) is under 100 nM.

Take `[2H]C([2H])([2H])N1C(=O)c2cccc(OC(F)F)c2[C@H]2C[C@@H]1c1nc3ccc(C#CCOCC(F)(F)F)cc3n12` [Example 160, (7R,14R)-1-(difluoromethoxy)-6-(methyl-d3)-11-(3-(2,2,2-trifluoroethoxy)prop-1-yn-1-yl)-6,7-dihydro-7,14-methanobenzo[f]benzo[4,5]imidazo[1,2-a][1,4]diazocin-5(14H)-one]: the IC50 (read-out: IC50 value) was under 100 nM.

Regarding `[2H]C([2H])([2H])N1C(=O)c2cccc(OC(F)F)c2[C@H]2C[C@@H]1c1nc3ccc(C#Cc4ccc(P(C)(C)=O)cc4)cc3n12` [Example 106, (7R,14R)-1-(difluoromethoxy)-11-((4-(dimethylphosphoryl)phenyl)ethynyl)-6-(methyl-d3)-6,7-dihydro-7,14-methanobenzo[f]benzo[4,5]imidazo[1,2-a][1,4]diazocin-5(14H)-one], the IC50 (read-out: IC50 value) was under 100 nM.

For the compound `[2H]C([2H])([2H])N1C(=O)c2cccc(OC(F)F)c2[C@H]2C[C@@H]1c1nc3ccc(C#CCC)cc3n12` [Example 84, (7R,14R)-11-(but-1-yn-1-yl)-1-(difluoromethoxy)-6-(methyl-d3)-6,7-dihydro-7,14-methanobenzo[f]benzo[4,5]imidazo[1,2-a][1,4]diazocin-5(14H)-one], the IC50 (IC50 value) was under 100 nM.

For the compound `[2H]C([2H])([2H])N1C(=O)c2cccc(OC(F)F)c2[C@H]2C[C@@H]1c1nc3ccc(C#C[C@H]4C[C@H](NC)C4)cc3n12` [Example 254, (7R,14R)-1-(difluoromethoxy)-6-(methyl-d3)-11-(((1r,3R)-3-(methylamino)cyclobutyl)ethynyl)-6,7-dihydro-7,14-methanobenzo[f]benzo[4,5]imidazo[1,2-a][1,4]diazocin-5(14H)-one], where the note is “read-out: IC50 value”, the IC50 is under 100 nM.

Turning to `[2H]C([2H])([2H])N1C(=O)c2cccc(OC(F)F)c2[C@H]2C[C@@H]1c1nc3ccc(C#CC4(O)CNC4)cc3n12` [Example 251, (7R,14R)-1-(difluoromethoxy)-11-((3-hydroxyazetidin-3-yl)ethynyl)-6-(methyl-d3)-6,7-dihydro-7,14-methanobenzo[f]benzo[4,5]imidazo[1,2-a][1,4]diazocin-5(14H)-one], the IC50 (read-out: IC50 value) lay in the range of 10000 to 30000 nM.

Regarding `[2H]C([2H])([2H])N1C(=O)c2cccc(OC(F)F)c2[C@H]2C[C@@H]1c1nc3ccc(C#CC(C)(C)CO)cc3n12` [Example 191, (7R,14R)-1-(difluoromethoxy)-11-(4-hydroxy-3,3-dimethylbut-1-yn-1-yl)-6-(methyl-d3)-6,7-dihydro-7,14-methanobenzo[f]benzo[4,5]imidazo[1,2-a][1,4]diazocin-5(14H)-one], the IC50 (read-out: IC50 value) is 10000 to 30000 nM.

On to `[2H]C([2H])([2H])N1C(=O)c2cccc(OC(F)F)c2[C@H]2C[C@@H]1c1nc3ccc(C#CC4CCCCN4)cc3n12` (stereo partly drawn) [Example 47, (7R,14R)-1-(difluoromethoxy)-6-(methyl-d3)-11-(piperidin-2-ylethynyl)-6,7-dihydro-7,14-methanobenzo[f]benzo[4,5]imidazo[1,2-a][1,4]diazocin-5(14H)-one], for which the IC50 (read-out: IC50 value) was in the range of 10000 to 30000 nM.

Regarding `[2H]C([2H])([2H])N1C(=O)c2cccc(OC(F)F)c2[C@H]2C[C@@H]1c1nc3ccc(C#Cc4nnc(NC(=O)OC(C)(C)C)s4)cc3n12` [Example 261, tert-butyl (5-(((7R,14R)-1-(difluoromethoxy)-6-(methyl-d3)-5-oxo-5,6,7,14-tetrahydro-7,14-methanobenzo[f]benzo[4,5]imidazo[1,2-a][1,4]diazocin-11-yl)ethynyl)-1,3,4-thiadiazol-2-yl)carbamate], the half-maximal inhibitory concentration (IC50) (read-out: IC50 value) was under 100 nM.

With `[2H]C([2H])([2H])N1C(=O)c2cccc(OC(F)F)c2[C@H]2C[C@@H]1c1nc3ccc(C#CC(=O)O)cc3n12` [Example 37, 3-((7R,14R)-1-(difluoromethoxy)-6-(methyl-d3)-5-oxo-5,6,7,14-tetrahydro-7,14-methanobenzo[f]benzo[4,5]imidazo[1,2-a][1,4]diazocin-11-yl)propiolic Acid], for the setting “read-out: IC50 value”, the half-maximal inhibitory concentration (IC50) was under 100 nM.

As to `[2H]C([2H])([2H])N1C(=O)c2cccc(OC(F)F)c2[C@H]2C[C@@H]1c1nc3ccc(C#CC4(O)CCOCC4)cc3n12` [Example 97, (7R,14R)-1-(difluoromethoxy)-11-((4-hydroxytetrahydro-2H-pyran-4-yl)ethynyl)-6-(methyl-d3)-6,7-dihydro-7,14-methanobenzo[f]benzo[4,5]imidazo[1,2-a][1,4]diazocin-5(14H)-one], where the note is “read-out: IC50 value”, the IC50 is under 100 nM.

For `[2H]C([2H])([2H])N1C(=O)c2cccc(OC(F)F)c2[C@H]2C[C@@H]1c1nc3ccc(C#CC4CN(CC)C4)cc3n12` [Example 118, (7R,14R)-1-(difluoromethoxy)-11-((1-ethylazetidin-3-yl)ethynyl)-6-(methyl-d3)-6,7-dihydro-7,14-methanobenzo[f]benzo[4,5]imidazo[1,2-a][1,4]diazocin-5(14H)-one], the IC50 (read-out: IC50 value) was under 100 nM.

The term IC50 denotes the point on the concentration scale where inhibition reaches its midpoint.
